From PMC8119466, “A screen of FDA-approved drugs identifies inhibitors of protein tyrosine phosphatase 4A3 (PTP4A3 or PRL-3)” (Scientific Reports, 2021)
Counter-ions that a name gives are not always drawn. Like-named read-outs stand apart in the source and are kept apart here.

Legend:
Type in all cases: biochemical
[1] = target: T1, recombinant PRL-2 (Homo sapiens, UniProt Q12974); assay: In vitro phosphatase assay (DiFMUP hydrolysis), PRL-2;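 further: PRL-2 activity read as DiFMUP hydrolysis after 20 min at room temperature with drug, enzyme first pre-reduced at 4 °C for 20 min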
T1 construct: 6xHis (N, cleaved yes); made in house; host or cells: E. coli One Shot BL21 Star
T1 sequence (Q12974 1-167): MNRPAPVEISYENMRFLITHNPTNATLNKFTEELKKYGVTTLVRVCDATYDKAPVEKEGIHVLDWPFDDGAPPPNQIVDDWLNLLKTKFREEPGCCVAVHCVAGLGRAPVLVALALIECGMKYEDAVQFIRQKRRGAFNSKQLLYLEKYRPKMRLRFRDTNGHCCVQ

[2] = target: T2, recombinant PRL-1 (Homo sapiens, UniProt Q93096); assay: In vitro phosphatase assay (DiFMUP hydrolysis), PRL-1; further: test concentration or dose not given here
T2 construct: 6xHis (N, cleaved yes); made in house; host or cells: E. coli One Shot BL21 Star
T2 sequence (Q93096 1-173): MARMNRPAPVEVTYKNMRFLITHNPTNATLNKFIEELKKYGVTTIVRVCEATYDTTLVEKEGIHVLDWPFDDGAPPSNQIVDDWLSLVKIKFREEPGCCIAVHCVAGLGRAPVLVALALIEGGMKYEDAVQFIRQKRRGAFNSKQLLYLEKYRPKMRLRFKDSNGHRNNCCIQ

[3] = target: T3, recombinant PRL-3 (Homo sapiens, UniProt O75365); assay: In vitro phosphatase assay (DiFMUP hydrolysis), PRL-3; further: test concentration or dose not given here
T3 construct: 6xHis (N, cleaved yes); made in house; host or cells: E. coli One Shot BL21 Star

[4] = FDA-approved drug screen, compared to DMSO
[5] = FDA-approved drug screen, activity compared to DMSO

T3 sequence (O75365 whole entry): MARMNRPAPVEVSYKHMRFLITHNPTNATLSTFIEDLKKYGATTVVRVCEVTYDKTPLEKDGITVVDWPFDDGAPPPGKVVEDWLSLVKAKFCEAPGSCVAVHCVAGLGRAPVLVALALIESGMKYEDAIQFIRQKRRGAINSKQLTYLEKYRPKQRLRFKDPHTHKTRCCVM

Compound | % Phosphatase Activity (compared to DMSO) PRL-2 [1, 4] | % Phosphatase Activity (compared to DMSO) PRL-1 [2, 4] | % Phosphatase Activity (compared to DMSO) PRL-3 [3, 4] | further results
O=S(=O)([O-])CCSSCCS(=O)(=O)[O-].[Na+].[Na+] [Dimesna] | 99% | 99% | 79% | –
OCCN(CCO)c1nc(N2CCCCC2)c2nc(N(CCO)CCO)nc(N3CCCCC3)c2n1 [Dipyridamole] | 258% | 182% | 219% | –
CCN1CCN(Cc2ccc(Nc3ncc(F)c(-c4cc(F)c5nc(C)n(C(C)C)c5c4)n3)nc2)CC1 [LY2835219] | 79% | 92% | 99% | –
CC(C)[C@H](N)C(=O)OCCOCn1cnc2c(=O)nc(N)[nH]c21.Cl [Valaciclovir HCl] | – | – | – | % Phosphatase Activity (compared to DMSO) PRL-2 [1, 5]: 102%; % Phosphatase Activity (compared to DMSO) PRL-1 [2, 5]: 97%; % Phosphatase Activity (compared to DMSO) PRL-3 [3, 5]: 98%
CCC1(c2cccc(O)c2)CCCCN(C)C1 (stereo not drawn) [Meptazinol HCl] | 124% | 106% | 84% | –
Nc1ccc(/N=N/c2ccccc2)c(N)n1 [Phenazopyridine HCl] | 61% | 64% | 55% | –
CCCCCCCCCCCCCCCCOP(=O)([O-])OCC[N+](C)(C)C [Miltefosine] | 94% | 92% | 122% | –
Cc1nc2c([nH]1)-c1ccccc1N(C(=O)c1ccc(NC(=O)c3ccccc3-c3ccccc3)cc1)CC2.Cl [Conivaptan HCl] | 106% | 95% | 85% | –
Cc1ccc(-n2nc(C(C)(C)C)cc2NC(=O)Nc2ccc(OCCN3CCOCC3)c3ccccc23)cc1 [BIRB 796 (Doramapimod)] | 106% | 108% | 98% | –
CCC(=O)O[C@]1(C(=O)CCl)[C@@H](C)C[C@H]2[C@@H]3C[C@H](F)C4=CC(=O)C=C[C@]4(C)[C@@]3(F)[C@@H](O)C[C@@]21C [Halobetasol Propionate] | 88% | 88% | 77% | –
CN1CCC(=C2c3ccccc3CCc3sccc32)CC1.O=C(O)CC(O)C(=O)O [Pizotifen Malate] | 109% | 114% | 95% | –
CCn1cc(C(=O)O)c(=O)c2ccc(C)nc21 [Nalidixic acid] | 122% | 112% | 100% | –
CCCCN1CCCCC1C(=O)Nc1c(C)cccc1C (stereo not drawn) [Bupivacaine HCl] | 108% | 108% | 82% | –
COCCCC/C(=N\OCCN)c1ccc(C(F)(F)F)cc1 [Fluvoxamine maleate] | 100% | 88% | 75% | –
C=C1CC[C@H](O)C/C1=C/C=C1\CCC[C@]2(C)[C@@H]([C@H](C)/C=C/[C@H](C)C(C)C)CC[C@@H]12 [Vitamin D2] | – | – | – | % Phosphatase Activity (compared to DMSO) PRL-2 [1, 5]: 99%; % Phosphatase Activity (compared to DMSO) PRL-1 [2, 5]: 95%; % Phosphatase Activity (compared to DMSO) PRL-3 [3, 5]: 84%
OC(c1cc(C(F)(F)F)nc2c(C(F)(F)F)cccc12)C1CCCCN1 (stereo not drawn) [Mefloquine HCl] | 106% | 100% | 109% | –
CC(=O)Oc1ccccc1C(=O)Nc1ncc([N+](=O)[O-])s1 [Nitazoxanide] | 76% | 87% | 62% | –
Cc1cn(-c2cc(NC(=O)c3ccc(C)c(Nc4nccc(-c5cccnc5)n4)c3)cc(C(F)(F)F)c2)cn1 [Nilotinib (AMN-107)] | 92% | 83% | 76% | –

Compound | % Phosphatase Activity (compared to DMSO) PRL-2 [1, 4] | % Phosphatase Activity (compared to DMSO) PRL-1 [2, 4] | % Phosphatase Activity (compared to DMSO) PRL-3 [3, 4] | further results
CC(C)NC[C@@H](O)COc1ccc(CC(N)=O)cc1 [(R)-(+)-Atenolol] | 109% | 113% | 74% | –
CCCCCCCCCC(=O)O[C@H]1CC[C@H]2[C@@H]3CCC4=CC(=O)CC[C@@H]4[C@H]3CC[C@]12C [Nandrolone decanoate] | 94% | 93% | 90% | –
COC(=O)[C@@H]1CC2=CC(=O)CC[C@]2(C)[C@@]23O[C@@H]2C[C@@]2(C)[C@@H](CC[C@@]24CCC(=O)O4)[C@H]13 [Eplerenone] | 112% | 105% | 81% | –
CCN1CCCC1CNC(=O)c1cc(S(N)(=O)=O)ccc1OC (stereo not drawn) [Sulpiride] | – | – | – | % Phosphatase Activity (compared to DMSO) PRL-2 [1, 5]: 92%; % Phosphatase Activity (compared to DMSO) PRL-1 [2, 5]: 89%; % Phosphatase Activity (compared to DMSO) PRL-3 [3, 5]: 70%
COc1cc2c(cc1OC)CN(CCc1ccc(NC(=O)c3cccc4c(=O)c5cccc(OC)c5[nH]c34)cc1)CC2 [Elacridar (GF120918)] | 104% | 106% | 100% | –
CN(C)C(=O)COC(=O)Cc1ccc(OC(=O)c2ccc(NC(=N)N)cc2)cc1 [Camostat Mesilate] | 138% | 98% | 94% | –
CCC1=C(C)CN(C(=O)NCCc2ccc(S(=O)(=O)NC(=O)N[C@H]3CC[C@H](C)CC3)cc2)C1=O [Glimepiride] | 88% | 84% | 76% | –
C[C@@H](O)[C@H]1C(=O)N2C(C(=O)O)=C(S[C@@H]3CN[C@H](CNS(N)(=O)=O)C3)[C@H](C)[C@H]12.O [Doripenem Hydrate] | 107% | 107% | 69% | –
CCCCC1C(=O)N(c2ccccc2)N(c2ccccc2)C1=O [Phenylbutazone] | 84% | 104% | 81% | –
CN(C)CCc1c[nH]c2ccc(C[C@H]3COC(=O)N3)cc12 [Zolmitriptan] | – | – | – | % Phosphatase Activity (compared to DMSO) PRL-2 [1, 5]: 86%; % Phosphatase Activity (compared to DMSO) PRL-1 [2, 5]: 111%; % Phosphatase Activity (compared to DMSO) PRL-3 [3, 5]: 80%
CC(=O)N[C@@H](CS)C(=O)O [Acetylcysteine] | 99% | 89% | 70% | –
CC[C@H]1OC(=O)[C@H](C)[C@@H](O[C@H]2C[C@@](C)(OC)[C@@H](O)[C@H](C)O2)[C@H](C)[C@@H](O[C@@H]2O[C@H](C)C[C@H](N(C)C)[C@H]2O)[C@](C)(O)C[C@@H](C)[C@@H]2N[C@@H](COCCOC)O[C@H]([C@H]2C)[C@]1(C)O [Dirithromycin] | 94% | 90% | 74% | –
CC[C@H](C)[C@H]1O[C@]2(CC[C@@H]1C)C[C@@H]1C[C@@H](C/C=C(\C)[C@@H](O[C@H]3C[C@H](OC)[C@@H](O[C@H]4C[C@H](OC)[C@@H](O)[C@H](C)O4)[C@H](C)O3)[C@@H](C)/C=C/C=C3\CO[C@@H]4[C@H](O)C(C)=C[C@@H](C(=O)O1)[C@]34O)O2 [Ivermectin] | 102% | 91% | 69% | –
CCCCNc1cc(C(=O)O)cc(S(N)(=O)=O)c1Oc1ccccc1 [Bumetanide] | 128% | 123% | 98% | –
CCOC(=O)O[C@]1(C(=O)OCCl)CC[C@H]2[C@@H]3CCC4=CC(=O)C=C[C@]4(C)[C@H]3[C@@H](O)C[C@@]21C [Loteprednol etabonate] | 89% | 100% | 82% | –
NC(=O)[C@@H]1CCCN1C(=O)[C@H](Cc1cnc[nH]1)NC(=O)[C@@H]1CCC(=O)N1 [Protirelin] | 91% | 97% | 106% | –
C/C(=C\C(=O)OCCCCCCCCC(=O)O)C[C@@H]1OC[C@H](C[C@@H]2O[C@H]2[C@@H](C)[C@H](C)O)[C@@H](O)[C@H]1O [Mupirocin] | 97% | 92% | 69% | –
CS(=O)(=O)CCNCc1ccc(-c2ccc3ncnc(Nc4ccc(OCc5cccc(F)c5)c(Cl)c4)c3c2)o1 [Lapatinib] | – | – | – | % Phosphatase Activity (compared to DMSO) PRL-2 [1]: 207%; % Phosphatase Activity (compared to DMSO) PRL-1 [2]: 207%; % Phosphatase Activity (compared to DMSO) PRL-3 [3]: 121%
